Measured values reported in patent US20070275960A1, “Phenyl and pyridyl compounds for inflammation and immune-related uses” (Synta Pharmaceuticals Corp., priority 2006, published 2007).
pIC50: −log10 of the molar value. Counter-ions that a name gives are not always drawn.

Tested on: IL-2 production
Assay: Inhibition of IL-2 production in PHA-activated Jurkat cells (ELISA)
Assay type: cell-based
Conditions: PHA 2.5 μg/mL, 20 hours at 37° C., IL-2 by ELISA
Description: Jurkat cells were placed in a 96 well plate (0.5 million cells per well in 1% FBS medium) then a test compound of this invention was added at different concentrations. After 10 minutes, the cells were activated with PHA (final concentration 2.5 μg/mL) and incubated for 20 hours at 37° C. under CO2. The final volume was 200 μL. Following incubation, the cells were centrifuged and the supernatants collected and stored at −70° C. prior to assaying for IL-2 production. A commercial ELISA kit (IL-2 Eli-pair, Diaclone Research, Besancon, France) was used to detect production of IL-2, from which dose response curves were obtained. The IC50 value was calculated as the concentration at which 50% of maximum IL-2 production after stimulation was inhibited versus a non-stimulation control.

Row | pIC50 (Homo sapiens, Jurkat, 20 h) | other results | SMILES
1 | 8.72 | – | Cc1sc(-c2ncco2)cc1-c1ccc(NC(=O)c2c(F)cccc2F)cc1 [Compound 122, 2,6-Difluoro-N-[4-(2-methyl-5-oxazol-2yl-thiophen-3-yl)-phenyl]-benzamide]
2 | 8.28 | – | Cc1cnccc1C(=O)Nc1ccc(-c2sc(-c3ccno3)cc2C)cc1 [Compound 94, 3-Methyl-N-[4-(3-methyl-5-isoxazol-5-yl-thiophen-2-yl)-phenyl]-isonicotinamide]
3 | < 6.00 | – | Cc1ncsc1-c1ccc(NC(=O)c2c(F)cccc2F)cc1 [Compound 120, 2,6-Difluoro-N-[4-(4-methyl-thiazole-5-yl)-phenyl]-benzamide]
4 | 7.13 | – | Cc1cc(-c2cnco2)sc1-c1ccc(NCc2ccncc2F)cc1 [Compound 129, (3-Fluoro-pyridin-4-ylmethyl)-[4-(5-oxazol-5-yl-3-methyl-thiophen-2-yl)-phenyl]-amine]
5 | 6.88 | – | COC(=O)c1nc(C)c(-c2ccc(NC(=O)c3c(F)cccc3F)cc2)s1 [Compound 121, 2,6-Difluoro-N-[4-(4-methyl-2-methoxycarbonyl-thiazol-5-yl)-phenyl]-benzamide]
6 | 8.15 | – | COC(=O)c1cc(-c2ccc(NC(=O)c3c(F)cccc3F)cc2)c(C)o1 [Compound 8, 4-[4-(2,6-Difluoro-benzoylamino)-phenyl]-5-methyl-furan-2-carboxylic acid methyl ester]
7 | 8.12 | – | Cc1cc(-c2cnco2)sc1-c1ccc(NC(=O)c2scnc2Cl)cc1 [Compound 110, 4-Chloro-thiazol-5-carboxylic acid [4-(3-methyl-5-oxazol-5-yl-thiophen-2-yl)-phenyl]-amide]
8 | 8.40 | – | Cc1cnccc1C(=O)Nc1ccc(-c2sc(-c3ccncc3)cc2C)cc1 [Compound 101]
9 | 8.52 | – | Cc1cc(-c2ccno2)sc1-c1ccc(NC(=O)c2cccn2C)cc1 [Compound 103, 1-Methyl-1H-pyrrol-2-carboxylic acid [4-(3-methyl-5-isoxazol-5-yl-thiophen-2-yl)-phenyl]-amide]
10 | 9.00 | – | COC(=O)c1cc(C)c(-c2ccc(NC(=O)c3c(F)cccc3F)cc2)s1 [Compound 4, 5-[4-(2,6-Difluoro-benzoylamino)-phenyl]-4-methyl-thiophene-2-carboxylic acid methyl ester]
11 | 8.62 | – | Cc1cc(-c2cnco2)sc1-c1ccc(NC(=O)Nc2c(F)cccc2F)cc1 [Compound 126, 1-(2,6-difluoro-phenyl)-3-[4-(5-oxazol-5-yl-3-methyl-thiophen-2-yl)-phenyl]-urea]
12 | 6.97 | – | Cc1nc(N2CCOCC2)sc1-c1ccc(NC(=O)c2c(F)cccc2F)cc1 [Compound 9, 2,6-Difluoro-N-[4-(4-methyl-2-morpholin-4-yl-thiazol-5-yl)-phenyl]-benzamide]
13 | – | pIC50: 8.21 | Cc1cc(-c2ccncc2)sc1-c1ccc(NC(=O)c2snnc2C)cc1 [Compound 118, 4-Methyl-[1,2,3]thiadiazole-5-carboxylic acid [4-(3-methyl-5-pyridin-4-yl-thiophen-2-yl)-phenyl]-amide]
14 | 8.60 | – | Cc1cc(-c2ccno2)sc1-c1ccc(NC(=O)Nc2c(F)cccc2F)cc1 [Compound 125, 1-(2,6-difluoro-phenyl)-3-[4-(5-isoxazol-5-yl-3-methyl-thiophen-2-yl)-phenyl]-urea]
15 | 6.91 | – | CCOC(=O)c1nc(-c2ccc(NC(=O)c3c(F)cccc3F)cc2)c(C)s1 [Compound 123, 2,6-Difluoro-N-[4-(5-methyl-2-ethoxycarbonyl-thiazol-4-yl)-phenyl]-benzamide]
16 | 6.63 | – | Cc1cnccc1C(=O)Nc1ccc(-c2sc(N3CCOCC3)nc2C)cc1 [Compound 10, 3-Methyl-N-[4-(4-methyl-2-morpholin-4-yl-thiazol-5-yl)-phenyl]-isonicotinamide]
17 | – | pIC50 (hydrochloride): 8.36 | Cc1cnccc1C(=O)Nc1ccc(-c2sc(-c3ccno3)cc2C)cc1 [Compound 95, 3-Methyl-N-[4-(3-methyl-5-isoxazol-5-yl-thiophen-2-yl)-phenyl]-isonicotinamide, hydrochloride]
